In brackets after ≈: the same amount, converted by molar mass. Like-named read-outs stand apart in the source and are kept apart here.
Tests used:
PDK1 (His6-PDK1(Δ1-50)) = PDK1 (His6-PDK1(Δ1-50)) (Homo sapiens (Human), UniProt O15530); assay: Test for the inhibition of PDK1 (enzymatic, flashplate, 33P-ATP); assay type: biochemical
Description: 4. Test for the Inhibition of PDK1
The experimental batches are carried out in a flashplate system with 384 wells/microtitration plate.
The test substances are employed in corresponding concentrations (if desired in a dilution series). The control is carried out without test substance. The reaction is stopped using standard methods and washed. The activity of the kinase is measured via the incorporated radioactivity in top count. In order to determine the non-specific kinase reaction (blank value), the experimental batches are carried out in the presence of 100 nM staurosporine.
The radioactivity (decompositions per minute) of the blank value (no use of test substance in the presence of staurosporine) is subtracted from all other radioactivity values. The controls (kinase activity without test substance) are set equal to 100 percent and all other radioactivity values (after subtracting the blank value) are expressed set in relation thereto (for example in % of the control).

Solubility = assay type: physicochemical; conditions: Table I
[1] = target: PDK1 kinase in PC3 cells (PKB phosphorylation at Thr 308) (Homo sapiens (Human), UniProt O15530); assay: Cellular testing of PDK1 kinase inhibitors in PC3 cells (Luminex, phospho-T308-PKB); assay type: cell-based
Description: Method for the Cellular Testing of PDK1 Kinase Inhibitors in PC3 Cells
The cellular assay for the determination of the PDK1 kinase activity is carried out as a Luminex assay in the 96-well format. PC3 cells are sown at 20,000 cells per well in 100 μl of medium (45% of […]/45% of Ham's F12/10% of FCS) and incubated on the following day for 30 min with a serial dilution of the test substance (7 concentrations) under serum-free conditions. The cells are subsequently lysed using 90 μl of lysis buffer (20 mM tris/HCl pH 8.0, 150 mM NaCl, 1% of NP40, 10% of glycerol, 1% of phosphatase inhibitor I, 1% of phosphatase inhibitor II, 0.1% of protease inhibitor cocktail III, 0.01% of benzonase) per well, and the lysates are separated off from insoluble cell constituents by means of centrifugation through a 96-well filter plate (0.65 μm). The lysates are incubated overnight at 4° C. with shaking with Luminex beads to which an anti-total PKB antibody is coupled. The detection is carried out on the following day by addition of a phospho-T308-PKB antibody and a species-specific […] secondary antibody. The detection of phospho-T308-PKB is carried out by measurement in a Luminex100 instrument by determination of 100 events per cavity in a measurement time of 60 sec. […] The values of the batches treated with test substance are calculated therefrom as percentage of control, and IC50 values are determined by means of RS1.

[2] = Table I comparison, read-out: PDK1 inhibition assay enzymatic IC50
[3] = enzymatic PDK1 inhibition assay, read-out: enzymatic IC50
[4] = PKB phosphorylation at Thr 308 in PC3 cells, read-out: cellular IC50
[5] = Table I comparison, values given in μM, read-out: PDK1 inhibition assay cellular IC50
[6] = Table I comparison, values in nM, read-out: PDK1 inhibition assay cellular IC50

PDK1 (His6-PDK1(Δ1-50)), sequence (O15530 51-556): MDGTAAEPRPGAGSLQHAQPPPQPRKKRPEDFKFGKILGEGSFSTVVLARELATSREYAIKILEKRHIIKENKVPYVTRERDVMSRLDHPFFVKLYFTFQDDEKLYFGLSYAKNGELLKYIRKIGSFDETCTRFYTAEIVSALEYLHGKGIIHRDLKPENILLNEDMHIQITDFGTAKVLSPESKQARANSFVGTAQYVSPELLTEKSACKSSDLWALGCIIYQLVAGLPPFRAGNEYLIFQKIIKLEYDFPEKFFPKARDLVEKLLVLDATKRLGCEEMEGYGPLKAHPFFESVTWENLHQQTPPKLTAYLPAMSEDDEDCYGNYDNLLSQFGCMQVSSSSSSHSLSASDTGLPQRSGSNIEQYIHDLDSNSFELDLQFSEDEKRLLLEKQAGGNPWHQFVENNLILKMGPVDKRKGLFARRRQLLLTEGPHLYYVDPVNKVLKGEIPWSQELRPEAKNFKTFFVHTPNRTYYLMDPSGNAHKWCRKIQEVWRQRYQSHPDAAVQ
PDK1 kinase in PC3 cells (PKB phosphorylation at Thr 308), sequence (O15530 whole entry): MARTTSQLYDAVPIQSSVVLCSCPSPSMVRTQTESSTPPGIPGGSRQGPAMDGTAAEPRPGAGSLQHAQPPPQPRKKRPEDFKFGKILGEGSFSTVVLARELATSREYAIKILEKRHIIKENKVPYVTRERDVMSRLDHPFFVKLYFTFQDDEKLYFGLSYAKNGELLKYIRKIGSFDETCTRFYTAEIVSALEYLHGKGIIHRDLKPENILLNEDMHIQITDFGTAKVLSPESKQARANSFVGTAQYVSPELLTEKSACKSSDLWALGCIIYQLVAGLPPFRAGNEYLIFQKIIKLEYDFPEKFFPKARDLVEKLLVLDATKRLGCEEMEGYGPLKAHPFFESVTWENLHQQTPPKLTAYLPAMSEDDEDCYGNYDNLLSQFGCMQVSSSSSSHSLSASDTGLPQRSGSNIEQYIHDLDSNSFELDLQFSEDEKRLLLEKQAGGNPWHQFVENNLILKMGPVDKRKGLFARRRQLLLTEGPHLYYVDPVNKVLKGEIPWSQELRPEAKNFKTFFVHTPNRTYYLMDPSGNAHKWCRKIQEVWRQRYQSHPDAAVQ

| IC50 (PDK1 (His6-PDK1(Δ1-50)); [2]) [nM] | IC50 (PDK1 (His6-PDK1(Δ1-50)); [3]) [nM] | solubility (Solubility) [µg/mL] | IC50 [1, 4] [µM] | IC50 [1, 5] [µM] | IC50 [1, 6] [µM] | Structure (SMILES) |
| --- | --- | --- | --- | --- | --- | --- |
| 130 | 130 | < 1 | 0.625 | 0.625 |  | Cn1cc(-c2cnc3[nH]cc(-c4cc(C5(c6ccccc6)CCCC5)nc(N)n4)c3c2)cn1 [A6, 4-[5-(1-Methyl-1H-pyrazol-4-yl)-1H-pyrrolo[2,3-b]pyridin-3-yl]-6-(1-phenylcyclopentyl)pyrimidin-2-ylamine] |
| 54 |  | < 1 |  |  | 0.492 | CC(C)n1cc(-c2cnc3[nH]cc(-c4cc(C(C)(O)c5ccccc5)nc(N)n4)c3c2)cn1 (stereo not drawn) [reference compound] |
| 61 |  | 8 (≈ 19.8 µM) |  | 3.5 |  | CC(C)n1cc(-c2cnc3[nH]cc(-c4cc(C5(O)CCCC5)nc(N)n4)c3c2)cn1 [reference compound] |
| 240 |  | > 46 |  | > 30 |  | CC(=O)NCCCc1cc(-c2c[nH]c3ncc(-c4cnn(C(C)C)c4)cc23)nc(N)n1 [reference compound] |
| 13 | 13 | 1 (≈ 2.34 µM) | 0.25 |  | 0.25 | Cn1cc(-c2cnc3[nH]cc(-c4cc(N(CCO)c5ccccc5)nc(N)n4)c3c2)cn1 [A4, 2-({2-Amino-6-[5-(1-methyl-1H-pyrazol-4-yl)-1H-pyrrolo[2,3-b]-pyridin-3-yl]pyrimidin-4-yl}phenylamino)ethanol] |
|  | 200 |  | > 10 |  |  | Cn1cc(-c2cnc3[nH]cc(-c4cc(N5CCc6cc(F)ccc65)nc(N)n4)c3c2)cn1 [A17, 4-(5-Fluoro-2,3-dihydroindol-1-yl)-6-[5-(1-methyl-1H-pyrazol-4-yl)-1H-pyrrolo[2,3-b]pyridin-3-yl]pyrimidin-2-ylamine] |
|  | 5900 |  | > 10 |  |  | CC(C)n1cc(-c2cnc3[nH]cc(-c4cc(N5CCc6cc(F)ccc65)nc(N)n4)c3c2)cn1 [A18, 4-(5-Fluoro-2,3-dihydroindol-1-yl)-6-[5-(1-isopropyl-1H-pyrazol-4-yl)-1H-pyrrolo[2,3-b]pyridin-3-yl]pyrimidin-2-ylamine] |
|  | 4.8 |  | > 10 |  |  | Cn1cc(-c2cnc3[nH]cc(-c4cc(N(CCC(=O)O)c5ccccc5Cl)nc(N)n4)c3c2)cn1 [A23, 3-[{2-Amino-6-[5-(1-methyl-1H-pyrazol-4-yl)-1H-pyrrolo[2,3-b]-pyridin-3-yl]pyrimidin-4-yl)-(2-chlorophenyl)amino]propionic acid] |
|  | 16.5 |  | 0.8 |  |  | CN(c1ccccc1)c1cc(-c2c[nH]c3ncc(-c4cnn(C)c4)cc23)nc(N)n1 [A11, N4-Methyl-6-[5-(1-methyl-1H-pyrazol-4-yl)-1H-pyrrolo[2,3-b]-pyridin-3-yl]-N4-phenylpyrimidine-2,4-diamine] |
|  | 90 |  | > 10 |  |  | Cn1cc(-c2cnc3[nH]cc(-c4cc(N(CC(O)CO)c5cccc(C#N)c5)nc(N)n4)c3c2)cn1 (stereo not drawn) [A22, 3-[{2-Amino-6-[5-(1-methyl-1H-pyrazol-4-yl)-1H-pyrrolo[2,3-b]-pyridin-3-yl]pyrimidin-4-yl}-(2,3-dihydroxypropyl)amino]-benzonitrile] |
|  | 12 |  | 0.69 |  |  | CCN(c1ccccc1)c1cc(-c2c[nH]c3ncc(-c4cnn(C)c4)cc23)nc(N)n1 [A12, N4-Ethyl-6-[5-(1-methyl-1H-pyrazol-4-yl)-1H-pyrrolo[2,3-b]-pyridin-3-yl]-N4-phenylpyrimidine-2,4-diamine] |
|  | 5 |  | 0.023 |  |  | Cn1cc(-c2cnc3[nH]cc(-c4cc(N(CCO)c5ccccc5F)nc(N)n4)c3c2)cn1 [A26, 2-[{2-Amino-6-[5-(1-methyl-1H-pyrazol-4-yl)-1H-pyrrolo[2,3-b]-pyridin-3-yl]pyrimidin-4-yl)-(2-fluorophenyl)amino]ethanol] |
